Experimental data from US5240946A, “((2-(amino-3,4-dioxo-1-cyclobuten-1-yl)amino)alkyl)-acid derivatives” (American Home Products Corporation, priority 1992, dated 1993).

Biological target: NMDA receptors
Assay: (3H)CPP binding displacement in rat brain homogenate
Details: (3H)CPP 8 nM, rat brain homogenate, 23° C.
Experimental: It was determined that the compounds of this invention are competitive NMDA antagonists by determining their ability to inhibit binding of 3-(2-carboxypiperazinyl-4-yl)propyl-1-phosphonic acid (CPP), a known competitive NMDA antagonist, at NMDA receptors in rat brain homogenate. In a manner similar to the procedure of Murphy et al., J. Pharmacol. Exp. Therap. 240 (3) 778 (1987), rat brain homogenates from which endogenous glutamate had been removed were incubated with (3H)CPP (8 nM), the compound being tested and then buffer each for 15 minutes at 23° C. to obtain a final volume of 2 milliliters. The amount of radio ligand displaced by the test compound is expressed as a percentile of the radio ligand displaced by NMDA. The inhibitory concentration of test compound that will displace 50% of the labeled CPP is determined from dose-responseevaluations.
(§1) Where the displacement of CPP binding is expressed as a percentage, it is at the μM concentration given at the concentration in the parenthesis. Similarly, where percent inhibition of lethality at dose in parenthesis.

Row | SMILES | IC50 [nM]
1 | O=c1c2c(c1=O)N(CCP(=O)(O)O)CCCN2 [Example 8, [2-(8,9-Dioxo-2,6-diazabicyclo[5.2.0]non-1(7)-en-2-yl)ethyl]phosphonic acid] | 30
2 | C=C(C)CN(CC(=O)O)c1c(N)c(=O)c1=O [3(a), N-(2-amino-3,4-dioxo-1-cyclobutenyl)-N-(2-methyl-2-propenyl)glycine] | 30000
3 | O=c1c2c(c1=O)N(CCP(=O)(O)O)CC(O)CN2 (stereo not shown) [Example 9, [2-(4-hydroxy-8,9-dioxo-2,6-diazabicyclo[5.2.0]non-1(7)-en-2-yl)ethyl]phosphonic acid] | 19
4 | CNc1c(NCCC(=O)O)c(=O)c1=O [2(a), N-[2-(methylamino)-3,4-dioxo-1-cyclobutenyl]beta-alanine] | 19600
5 | O=c1c2c(c1=O)N(C/C=C/P(=O)(O)O)CCCN2 [9(c), [(E)-3-(8,9-dioxo-2,6-diazabicyclo[5.2.0]non-1(7)-en-2-yl)-1-propenyl]phosphonic acid] | > 10000
6 | O=c1c2c(c1=O)N(CCCP(=O)(O)O)CCCN2 [9(b), [3-(8,9-dioxo-2,6-diazabicyclo[5.2.0]non-1(7)-en-2-yl)propyl]phosphonic acid] | > 1000
7 | Nc1c(NCP(=O)(O)O)c(=O)c1=O [4(a), [[(2-amino-3,4-dioxo-1-cyclobutenyl)amino]methyl]phosphonic acid] | > 10000
8 | CN(CP(=O)(O)O)c1c(N)c(=O)c1=O [6(a), [[(2-amino-3,4-dioxo-1-cyclobuten-1-yl)methylamino]methyl]phosphonic acid] | > 10000
9 | CC1(C)CNc2c(c(=O)c2=O)N(CCP(=O)(O)O)C1 [9(a), [2-(4,4-dimethyl-8,9-dioxo-2,6-diazabicyclo[5.2.0]non-1(7)-en-2-yl)ethyl]phosphonic acid] | 280
10 | Nc1c(NCCCP(=O)(O)O)c(=O)c1=O [4(b), [3-[(2-amino-3,4-dioxo-1-cyclobuten-1-yl)amino]propyl]phosphonic acid] | 2590
11 | O=c1c2c(c1=O)N(CCP(=O)(O)O)CCCCN2 [Example 12, [2-(9,10-Dioxo-2,7-diazabicyclo[6.2.0]dec-1(8)-en-2-yl)ethyl]phosphonic acid] | 41
12 | Nc1c(NCCCC(=O)O)c(=O)c1=O [1(c), 4-[(2-amino-3,4-dioxo-1-cyclobutenyl)amino]butanoic acid] | 10200
13 | C=CCN(CC(=O)O)c1c(N)c(=O)c1=O [Example 3, N-(2-Amino-3,4-dioxo-1-cyclobuten-1-yl)-N-(2-propenyl)glycine] | 10500
14 | CCOC(=O)CNc1c(N)c(=O)c1=O [1(a), N-(2-amino-3,4-dioxo-1-cyclobutenyl)glycine ethyl ester] | 190000
15 | O=C(O)CCN1CCCNc2c1c(=O)c2=O [10(a), 3-(8,9-dioxo-2,6-diazabicyclo[5.2.0]non-1(7)-en-2-yl)propanoic acid] | 340
16 | O=c1c2c(c1=O)N(CCP(=O)(O)O)CCN2 [Example 7, [2-(7,8-Dioxo-2,5-diazabicyclo[4.2.0]oct-1(6)-en-2-yl)ethyl]phosphonic acid] | 92
17 | Nc1c(NCCP(=O)(O)O)c(=O)c1=O [Example 4, [2-[(2-Amino-3,4-dioxo-1-cyclobuten-1-yl)amino]ethyl]phosphonic acid] | 471
18 | O=C(O)CN1CCCNc2c1c(=O)c2=O [Example 10, 8,9-Dioxo-2,6-diazabicyclo[5.2.0]non-1(7)-ene-2-acetic acid] | 550
19 | CN(CCP(=O)(O)O)c1c(N)c(=O)c1=O [Example 6, [2-[(2-Amino-3,4-dioxo-1-cyclobuten-1-yl)methylamino]ethyl]phosphonic acid] | 1000
20 | O=c1c2c(c1=O)N(Cc1nnn[nH]1)CCCN2 [Example 11, 2-[(1H-Tetrazol-5-yl)methyl]-2,6-diazabicyclo[5.2.0]non-1(7)-ene-8,9-dione] | 38
21 | Nc1c(NCCn2oc(=O)[nH]c2=O)c(=O)c1=O [Example 2, 2-[2-[(2-Amino-3,4-dioxo-1-cyclobuten-1-yl)amino]ethyl]-1,2,4-oxadiazolidine-3,5-dione] | 5200
22 | O=C(O)CCNc1c(NCc2ccccc2)c(=O)c1=O [2(b), 3-[[3,4-dioxo-2[(phenylmethyl)amino]-1-cyclobutenyl]amino]propanoic acid] | > 100000

Same assay, conditions: at 10 μM

Row | SMILES | displacement of CPP binding [%]
23 | Nc1c(NCCCCP(=O)(O)O)c(=O)c1=O [4(c), [4-[(2-amino-3,4-dioxo-1-cyclobuten-1-yl)amino]butyl]phosphonic acid] | 68
24 | Nc1c(NC/C=C/CP(=O)(O)O)c(=O)c1=O [Example 5, [(E)-4-[(2-Amino-3,4-dioxo-1-cyclobuten-1-yl)amino]-2-butenyl]phosphonic acid] | 52
25 | O=c1c2c(c1=O)N(CCc1nnn[nH]1)CCCN2 [11(a), 2-[2-(1H-tetrazol-5-yl)ethyl]-2,6-diazabicyclo[5.2.0]non-1(7)-ene-8,9-dione] | 40

Same assay, conditions: at 100 μM

Row | SMILES | displacement of CPP binding [%]
26 | Nc1c(N(CC(=O)O)Cc2ccccc2)c(=O)c1=O [3(b), N-(2-amino-3,4-dioxo-1-cyclobutenyl)-N-(phenylmethyl)glycine] | 50

Test system: NMDA-induced convulsions in mice
Assay: not given
Details: Lehmann et al. 1987; cited from earlier work

Row | SMILES | prevention of NMDA-induced convulsions
27 | O=C(O)C1CN(CCCP(=O)(O)O)CCN1 (stereo not shown) [CPP, 4-(3-phosphonopropyl)-2-piperazinecarboxylic acid] | NMDA-induced convulsions have been prevented by CPP in mice

Test system: male Swiss-albino mice (CD-1 strain), generalized myoclonus
Assay: NMDA-induced generalized myoclonus in mice
Type: in vivo
Details: Mus musculus, ip, read-out: ED90 dose for generalized myoclonus
Experimental: (§2) The mice were then observed for 30 minutes, noting the latency of onset of generalized myoclonus (uncontrollable hind leg scratching of limbs and/or torso muscle jerking with loss of righting reflex) and death. From the latter, the ED50 for survival is determined. In this standard experimental test procedure, the specific compounds tested and their activity, which representatively establish the activity for all the compounds herein, is presented in the following Table.

Row | SMILES | ED90 [mg/kg]
28 | CN[C@H](CC(=O)O)C(=O)O [NMDA, N-methyl-D-aspartic acid] | 195

Test system: male Swiss-albino mice (CD-1 strain), NMDA-induced lethality
Assay: NMDA induced lethality in mice (survival)
Type: in vivo, mouse
Details: Mus musculus, 0.5 h; mice pretreated 30 min before NMDA 195 mg/kg i.p., observed 30 min
Experimental: as §2, §1

Row | SMILES | ED50 [mg/kg]
29 | O=c1c2c(c1=O)N(CCP(=O)(O)O)CCCN2 [Example 8, [2-(8,9-Dioxo-2,6-diazabicyclo[5.2.0]non-1(7)-en-2-yl)ethyl]phosphonic acid] | 2.1
30 | C=C(C)CN(CC(=O)O)c1c(N)c(=O)c1=O [3(a), N-(2-amino-3,4-dioxo-1-cyclobutenyl)-N-(2-methyl-2-propenyl)glycine] | > 100
31 | O=c1c2c(c1=O)N(CCP(=O)(O)O)CC(O)CN2 (stereo not shown) [Example 9, [2-(4-hydroxy-8,9-dioxo-2,6-diazabicyclo[5.2.0]non-1(7)-en-2-yl)ethyl]phosphonic acid] | 1.8
32 | CNc1c(NCCC(=O)O)c(=O)c1=O [2(a), N-[2-(methylamino)-3,4-dioxo-1-cyclobutenyl]beta-alanine] | > 100
33 | O=c1c2c(c1=O)N(C/C=C/P(=O)(O)O)CCCN2 [9(c), [(E)-3-(8,9-dioxo-2,6-diazabicyclo[5.2.0]non-1(7)-en-2-yl)-1-propenyl]phosphonic acid] | > 5
34 | O=c1c2c(c1=O)N(CCCP(=O)(O)O)CCCN2 [9(b), [3-(8,9-dioxo-2,6-diazabicyclo[5.2.0]non-1(7)-en-2-yl)propyl]phosphonic acid] | > 10
35 | Nc1c(N(CC(=O)O)Cc2ccccc2)c(=O)c1=O [3(b), N-(2-amino-3,4-dioxo-1-cyclobutenyl)-N-(phenylmethyl)glycine] | > 100
36 | Nc1c(NCCCP(=O)(O)O)c(=O)c1=O [4(b), [3-[(2-amino-3,4-dioxo-1-cyclobuten-1-yl)amino]propyl]phosphonic acid] | > 100
37 | Nc1c(NCCCC(=O)O)c(=O)c1=O [1(c), 4-[(2-amino-3,4-dioxo-1-cyclobutenyl)amino]butanoic acid] | > 100
38 | Nc1c(NCCCCP(=O)(O)O)c(=O)c1=O [4(c), [4-[(2-amino-3,4-dioxo-1-cyclobuten-1-yl)amino]butyl]phosphonic acid] | > 30
39 | C=CCN(CC(=O)O)c1c(N)c(=O)c1=O [Example 3, N-(2-Amino-3,4-dioxo-1-cyclobuten-1-yl)-N-(2-propenyl)glycine] | > 100
40 | CCOC(=O)CNc1c(N)c(=O)c1=O [1(a), N-(2-amino-3,4-dioxo-1-cyclobutenyl)glycine ethyl ester] | > 100
41 | O=C(O)CCN1CCCNc2c1c(=O)c2=O [10(a), 3-(8,9-dioxo-2,6-diazabicyclo[5.2.0]non-1(7)-en-2-yl)propanoic acid] | > 20
42 | O=c1c2c(c1=O)N(CCP(=O)(O)O)CCN2 [Example 7, [2-(7,8-Dioxo-2,5-diazabicyclo[4.2.0]oct-1(6)-en-2-yl)ethyl]phosphonic acid] | 6.2
43 | O=C(O)CN1CCCNc2c1c(=O)c2=O [Example 10, 8,9-Dioxo-2,6-diazabicyclo[5.2.0]non-1(7)-ene-2-acetic acid] | > 20
44 | Nc1c(NC/C=C/CP(=O)(O)O)c(=O)c1=O [Example 5, [(E)-4-[(2-Amino-3,4-dioxo-1-cyclobuten-1-yl)amino]-2-butenyl]phosphonic acid] | > 30
45 | O=c1c2c(c1=O)N(CCc1nnn[nH]1)CCCN2 [11(a), 2-[2-(1H-tetrazol-5-yl)ethyl]-2,6-diazabicyclo[5.2.0]non-1(7)-ene-8,9-dione] | > 5
46 | Nc1c(NCC(=O)O)c(=O)c1=O [1(b), N-(2-amino-3,4-dioxo-1-cyclobutenyl)glycine] | > 100
47 | Nc1c(NCCC(=O)O)c(=O)c1=O [Example 1, N-(2-Amino-3,4-dioxo-1-cyclobuten-1-yl)beta-alanine] | > 100
48 | O=c1c2c(c1=O)N(Cc1nnn[nH]1)CCCN2 [Example 11, 2-[(1H-Tetrazol-5-yl)methyl]-2,6-diazabicyclo[5.2.0]non-1(7)-ene-8,9-dione] | > 10
49 | Nc1c(NCCn2oc(=O)[nH]c2=O)c(=O)c1=O [Example 2, 2-[2-[(2-Amino-3,4-dioxo-1-cyclobuten-1-yl)amino]ethyl]-1,2,4-oxadiazolidine-3,5-dione] | > 100
50 | O=C(O)CCNc1c(NCc2ccccc2)c(=O)c1=O [2(b), 3-[[3,4-dioxo-2[(phenylmethyl)amino]-1-cyclobutenyl]amino]propanoic acid] | > 100

Same assay, conditions: at dose in parenthesis 5 (in mg/kg); NMDA 195 mg/kg i.p.

Row | SMILES | percent inhibition of lethality [%]
51 | CC1(C)CNc2c(c(=O)c2=O)N(CCP(=O)(O)O)C1 [9(a), [2-(4,4-dimethyl-8,9-dioxo-2,6-diazabicyclo[5.2.0]non-1(7)-en-2-yl)ethyl]phosphonic acid] | 50
52 | O=c1c2c(c1=O)N(CCP(=O)(O)O)CCCCN2 [Example 12, [2-(9,10-Dioxo-2,7-diazabicyclo[6.2.0]dec-1(8)-en-2-yl)ethyl]phosphonic acid] | 80

Same assay, conditions: at dose in parenthesis 50 (in mg/kg); NMDA 195 mg/kg i.p.

Row | SMILES | percent inhibition of lethality [%]
53 | CN(CCP(=O)(O)O)c1c(N)c(=O)c1=O [Example 6, [2-[(2-Amino-3,4-dioxo-1-cyclobuten-1-yl)methylamino]ethyl]phosphonic acid] | 50

Test system: ischemic brain damage in gerbils
Assay: not given
Details: Boast et al., Brain Research 1988; cited from earlier work

Row | SMILES | prevention of ischemic brain damage
54 | O=C(O)C1CN(CCCP(=O)(O)O)CCN1 (stereo not shown) [CPP, 4-(3-phosphonopropyl)-2-piperazinecarboxylic acid] | shown to prevent ischemic brain damage in gerbils

Test system: Parkinsonian-like symptoms induced by MPTP in rats
Assay: not given
Details: Turski et al., Nature 1991; cited from earlier work

Row | SMILES | prevention of Parkinsonian-like symptoms induced by MPTP
55 | O=C(O)C1CN(CCCP(=O)(O)O)CCN1 (stereo not shown) [CPP, 4-(3-phosphonopropyl)-2-piperazinecarboxylic acid] | shown to prevent the Parkinsonian-like symptoms induced by MPTP
